Experimental data as given in ChEMBL document CHEMBL3991601, “The target landscape of clinical kinase drugs” (Science, 2017).
The source made the active and inactive calls.

Key:
[1] = target: Serine/threonine-protein kinase 24 (Homo sapiens, UniProt Q9Y6E0)
[2] = target: Dual specificity protein kinase CLK4 (Homo sapiens, UniProt Q9HAZ1)
[3] = target: T1, Dual specificity protein kinase TTK (Homo sapiens, UniProt P33981)
T1 sequence (P33981 whole entry): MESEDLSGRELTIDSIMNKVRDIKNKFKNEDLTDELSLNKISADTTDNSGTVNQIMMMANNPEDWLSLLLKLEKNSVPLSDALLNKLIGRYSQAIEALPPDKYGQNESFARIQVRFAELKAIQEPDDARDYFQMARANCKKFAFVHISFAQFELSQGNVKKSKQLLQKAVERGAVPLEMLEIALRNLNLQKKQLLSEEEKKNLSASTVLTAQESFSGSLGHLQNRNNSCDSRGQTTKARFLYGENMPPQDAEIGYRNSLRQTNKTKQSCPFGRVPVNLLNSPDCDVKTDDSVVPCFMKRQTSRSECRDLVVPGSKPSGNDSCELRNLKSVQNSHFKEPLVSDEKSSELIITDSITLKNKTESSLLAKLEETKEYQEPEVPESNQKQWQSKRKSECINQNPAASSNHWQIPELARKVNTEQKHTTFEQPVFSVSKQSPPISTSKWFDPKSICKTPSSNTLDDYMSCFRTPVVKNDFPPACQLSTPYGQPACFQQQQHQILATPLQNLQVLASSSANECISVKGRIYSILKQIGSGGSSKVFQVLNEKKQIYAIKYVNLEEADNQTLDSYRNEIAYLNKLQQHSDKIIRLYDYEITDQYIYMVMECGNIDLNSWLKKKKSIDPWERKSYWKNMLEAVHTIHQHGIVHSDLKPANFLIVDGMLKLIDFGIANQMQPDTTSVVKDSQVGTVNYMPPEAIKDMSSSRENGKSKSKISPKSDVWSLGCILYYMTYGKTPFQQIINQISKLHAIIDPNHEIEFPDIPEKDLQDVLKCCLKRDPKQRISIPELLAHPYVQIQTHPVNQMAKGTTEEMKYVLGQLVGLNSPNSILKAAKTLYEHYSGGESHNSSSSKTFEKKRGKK

[4] = target: Dual specificity testis-specific protein kinase 1 (Homo sapiens, UniProt Q15569)
Chain of Dual specificity testis-specific protein kinase 1 (Q15569 whole entry): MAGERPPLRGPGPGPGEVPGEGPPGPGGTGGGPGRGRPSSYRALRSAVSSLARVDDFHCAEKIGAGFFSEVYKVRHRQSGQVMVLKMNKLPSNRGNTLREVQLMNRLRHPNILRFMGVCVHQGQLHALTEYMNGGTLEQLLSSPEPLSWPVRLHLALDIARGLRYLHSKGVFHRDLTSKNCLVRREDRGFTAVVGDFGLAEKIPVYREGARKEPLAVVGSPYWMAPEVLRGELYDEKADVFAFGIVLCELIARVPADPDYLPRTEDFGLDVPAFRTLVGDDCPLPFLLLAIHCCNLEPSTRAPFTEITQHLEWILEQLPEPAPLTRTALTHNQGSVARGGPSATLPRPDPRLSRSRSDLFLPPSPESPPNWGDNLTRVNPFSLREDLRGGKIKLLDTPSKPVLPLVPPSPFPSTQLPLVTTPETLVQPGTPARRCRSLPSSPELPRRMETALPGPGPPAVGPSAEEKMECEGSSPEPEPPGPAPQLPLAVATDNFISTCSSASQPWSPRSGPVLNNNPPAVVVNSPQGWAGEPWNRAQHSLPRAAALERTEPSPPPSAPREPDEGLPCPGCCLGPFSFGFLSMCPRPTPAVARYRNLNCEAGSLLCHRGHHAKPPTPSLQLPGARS

[5] = target: T2, UMP-CMP kinase (Homo sapiens, UniProt P30085)
T2 sequence (P30085 whole entry): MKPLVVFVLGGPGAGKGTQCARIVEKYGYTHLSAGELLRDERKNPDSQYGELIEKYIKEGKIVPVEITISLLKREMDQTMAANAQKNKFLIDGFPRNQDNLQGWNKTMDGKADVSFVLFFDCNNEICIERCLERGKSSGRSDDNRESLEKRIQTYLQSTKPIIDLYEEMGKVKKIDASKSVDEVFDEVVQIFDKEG

[6] = target: Dual specificity mitogen-activated protein kinase kinase 1 (Homo sapiens, UniProt Q02750)
Chain of Dual specificity mitogen-activated protein kinase kinase 1 (Q02750 whole entry): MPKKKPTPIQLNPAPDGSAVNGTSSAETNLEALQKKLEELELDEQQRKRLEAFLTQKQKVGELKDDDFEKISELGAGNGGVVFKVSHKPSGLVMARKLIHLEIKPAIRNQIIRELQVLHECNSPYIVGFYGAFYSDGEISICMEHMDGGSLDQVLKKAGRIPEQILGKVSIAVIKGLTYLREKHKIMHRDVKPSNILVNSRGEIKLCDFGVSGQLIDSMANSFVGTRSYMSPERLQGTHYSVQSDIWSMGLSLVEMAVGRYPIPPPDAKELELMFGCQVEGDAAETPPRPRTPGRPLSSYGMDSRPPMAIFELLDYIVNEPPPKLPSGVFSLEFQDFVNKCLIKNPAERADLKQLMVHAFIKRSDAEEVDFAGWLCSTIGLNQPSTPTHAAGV

[7] = target: T3, Thyroid hormone receptor-associated protein 3 (Homo sapiens, UniProt Q9Y2W1)
T3 sequence (Q9Y2W1 whole entry): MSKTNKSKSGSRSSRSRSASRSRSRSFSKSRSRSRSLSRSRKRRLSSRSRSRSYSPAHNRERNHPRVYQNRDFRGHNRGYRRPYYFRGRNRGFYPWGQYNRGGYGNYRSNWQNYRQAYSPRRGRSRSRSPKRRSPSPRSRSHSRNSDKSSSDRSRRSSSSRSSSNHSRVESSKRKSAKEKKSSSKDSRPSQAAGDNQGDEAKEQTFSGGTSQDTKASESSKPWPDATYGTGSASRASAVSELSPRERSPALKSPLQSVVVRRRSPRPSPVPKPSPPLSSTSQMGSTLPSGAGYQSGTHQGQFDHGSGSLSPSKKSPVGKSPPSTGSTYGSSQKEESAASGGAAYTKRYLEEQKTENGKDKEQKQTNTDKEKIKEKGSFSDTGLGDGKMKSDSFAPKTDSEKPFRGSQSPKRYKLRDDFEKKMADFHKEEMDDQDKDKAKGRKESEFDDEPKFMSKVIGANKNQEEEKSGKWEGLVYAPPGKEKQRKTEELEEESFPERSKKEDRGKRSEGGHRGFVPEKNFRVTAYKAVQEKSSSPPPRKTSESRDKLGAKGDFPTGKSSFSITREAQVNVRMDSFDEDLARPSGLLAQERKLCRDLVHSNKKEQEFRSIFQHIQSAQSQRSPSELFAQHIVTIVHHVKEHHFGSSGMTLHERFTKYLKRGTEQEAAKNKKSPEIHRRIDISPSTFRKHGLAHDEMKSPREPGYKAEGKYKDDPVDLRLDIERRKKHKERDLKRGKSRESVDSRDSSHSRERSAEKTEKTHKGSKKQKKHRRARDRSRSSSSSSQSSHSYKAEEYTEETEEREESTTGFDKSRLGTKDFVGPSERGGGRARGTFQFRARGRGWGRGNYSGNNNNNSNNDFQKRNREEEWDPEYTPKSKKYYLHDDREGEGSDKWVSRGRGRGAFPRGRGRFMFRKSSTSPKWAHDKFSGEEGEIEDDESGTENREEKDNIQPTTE
Also: in the data inactive means no Kd found up to 30 µM.

Chain of Serine/threonine-protein kinase 24 (Q9Y6E0 whole entry): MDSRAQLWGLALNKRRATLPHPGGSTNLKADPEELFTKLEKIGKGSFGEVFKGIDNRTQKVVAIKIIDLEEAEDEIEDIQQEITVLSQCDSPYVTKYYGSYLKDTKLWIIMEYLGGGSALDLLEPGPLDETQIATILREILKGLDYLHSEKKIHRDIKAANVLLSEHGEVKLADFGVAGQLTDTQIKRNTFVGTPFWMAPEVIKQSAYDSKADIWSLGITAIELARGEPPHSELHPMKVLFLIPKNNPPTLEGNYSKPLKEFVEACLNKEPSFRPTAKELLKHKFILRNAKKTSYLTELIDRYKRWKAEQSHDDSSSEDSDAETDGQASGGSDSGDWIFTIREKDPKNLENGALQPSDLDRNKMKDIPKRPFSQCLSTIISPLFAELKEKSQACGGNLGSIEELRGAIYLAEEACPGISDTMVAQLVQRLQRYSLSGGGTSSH
Chain of Dual specificity protein kinase CLK4 (Q9HAZ1 whole entry): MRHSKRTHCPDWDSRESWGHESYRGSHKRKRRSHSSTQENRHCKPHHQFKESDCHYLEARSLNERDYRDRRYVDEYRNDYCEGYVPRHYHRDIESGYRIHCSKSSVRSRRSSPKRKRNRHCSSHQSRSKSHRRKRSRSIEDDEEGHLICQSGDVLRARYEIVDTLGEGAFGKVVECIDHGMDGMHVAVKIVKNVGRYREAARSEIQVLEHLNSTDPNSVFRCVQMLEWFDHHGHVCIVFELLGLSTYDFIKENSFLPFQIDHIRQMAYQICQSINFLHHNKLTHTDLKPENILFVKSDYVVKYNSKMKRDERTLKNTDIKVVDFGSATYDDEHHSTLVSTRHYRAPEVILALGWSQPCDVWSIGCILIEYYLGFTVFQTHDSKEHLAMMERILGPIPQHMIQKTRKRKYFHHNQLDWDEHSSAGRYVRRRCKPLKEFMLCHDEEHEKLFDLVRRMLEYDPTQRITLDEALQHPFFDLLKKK

Row | Compound | Kd [1] | Kd [2] | Kd [3] | Kd [4] | Kd [5] | Kd [6] | Kd [7]
1 | Cc1ccc(C(=O)Nc2ccc(Oc3cc4cnn(C)c4cc3-c3cn[nH]c3)c(F)c2)c(=O)n1-c1ccc(F)cc1 [MERESTINIB] | > 30 µM (inactive) | > 30 µM (inactive) | > 30 µM (inactive) | > 30 µM (inactive) | > 30 µM (inactive) | > 30 µM (inactive) | > 30 µM (inactive)
2 | Cc1c(Cn2c(C)nc3c(C(=O)O)cc(N4CCOCC4)cc32)cccc1C(F)(F)F [GSK-2636771] | > 30 µM (inactive) | > 30 µM (inactive) | > 30 µM (inactive) | > 30 µM (inactive) | > 30 µM (inactive) | > 30 µM (inactive) | > 30 µM (inactive)
